The subject of assay [1] is HT-1197 (Bladder Carcinoma). Briefly: combination Emax (second highest fraction inhibited in the dose matrix, 72 h); higher = more inhibition; extreme values may be limits of the assay. The procedure, abridged:
(§1)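 Cell lines in DMEM/F12 or RPMI with 10% FBS were plated in 1536-well plates, held 24 hours at 37°C, 5% CO2, then given two-drug dose matrices for 72 hours (DMSO typically 0.2%). Viability was read by CellTiter-Glo 2.0 luminescence and scaled as inhibition from 0 (vehicle wells) to 1 (blank wells). Combination Emax is the second-highest inhibition in the matrix; Bliss excess is observed combination effect minus expected EA + EB − EA·EB, EA and EB being single-agent effects.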

For assay [2], the system named is NCI-H2009 (Lung Adenocarcinoma). Described as above. The procedure, abridged: as §1
The subject of assay [3] is NCI-H1048 (Small Cell Lung Carcinoma). The description is as above. The procedure, abridged: as §1
The subject of assay [4] is SW1463 (Colorectal Carcinoma). The description is as above. The procedure, abridged:
as §1

In a further assay the test system is GCIY (Gastric Carcinoma). The assay is described as above. The procedure, abridged:
as §1

Assay [5] deals with SCC90 (Head and Neck Carcinoma). The description is as above. The procedure, abridged:
as §1

Assay [6] concerns C2BBe1 (Colorectal Carcinoma). Described as above. The procedure, abridged:
as §1

Assay [7] relates to TK (B-Cell Non-Hodgkin's Lymphoma). The description is as above. The procedure, abridged:
as §1

For assay [8], the system named is RS4-11 (B-Lymphoblastic Leukemia). Described as above. The procedure, abridged:
as §1

In assay [9] the test system is ATN-1 (T-Lymphoblastic Leukemia). The assay is described as above. The procedure, abridged:
as §1

Assay [10] deals with L-363 (Plasma Cell Myeloma). The description is as above. The procedure, abridged:
as §1

Assay [11] deals with SBC-5 (Small Cell Lung Carcinoma). Described as above. The procedure, abridged: as §1
Assay [12] concerns HT-1197 (Bladder Carcinoma). Briefly: Bliss excess, mean over the matrix (fraction); higher = more synergy. The procedure, abridged:
as §1

For assay [13], the system named is NCI-H1975 (Lung Adenocarcinoma). Described as above. The procedure, abridged: as §1
The subject of assay [14] is RS4-11 (B-Lymphoblastic Leukemia). Described as above. The procedure, abridged: as §1
Assay [15] relates to JJN-3 (Plasma Cell Myeloma). The assay is described as above. The procedure, abridged: as §1
For assay [16], the system named is TOV-21G (Ovarian Carcinoma). Described as above. The procedure, abridged: as §1
The subject of assay [17] is SUP-HD1 (Hodgkin's Lymphoma). Described as above. The procedure, abridged: as §1
Assay [18] relates to NCI-H1648 (Lung Adenocarcinoma). The description is as above. The procedure, abridged: as §1
Assay [19] concerns MDA-MB-175-VII (Breast Carcinoma). Described as above. The procedure, abridged:
as §1
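For Bliss excess, mean over the matrix in this document: after 72 h of two-drug dosing.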

For `CCc1c2c(nc3ccc(O)cc13)-c1cc3c(c(=O)n1C2)COC(=O)[C@]3(O)CC` [SN-38] + CN(C)CCCOc1ccc(-c2ccc3ncc4c(c3c2)n(C2CCOCC2)c(=O)n4C)cn1 [AZD0156] (first compound max 0.3 µM, 7x7, partner max 1 µM), the “combination Emax” value in assay [1] worked out at 0.156; in assay [2], 0.562; in [3] it was 0.968; in assay [4] it was 0.634; in the assay on GCIY (Gastric Carcinoma), 0.8; in assay [5] it was 0.423. Also, the “combination Emax” value in assay [6] was found to be 0.149; in assay [7], 0.991; in assay [8], 0.984; in [9], 1; in assay [10], 0.559; in assay [11] it was 0.864. Further, the Bliss excess in assay [12] was -0.0537; in [13], 0.006; in assay [14], -0.0347; in assay [15] it was 0.0183; in assay [16], -0.0349; in assay [17], -0.0579. Moreover, the Bliss excess was -0.0451 in assay [18] and -0.0043 in assay [19].

On to `Cn1cnc2c(F)c(Nc3ccc(Br)cc3Cl)c(C(=O)NOCCO)cc21` [Selumetinib] + C=CCn1c(=O)c2cnc(Nc3ccc(N4CCN(C)CC4)cc3)nc2n1-c1cccc(C(C)(C)O)n1 [AZD1775] (first compound max 10 µM, partner max 1 µM), for which the “combination Emax” value in assay [1] came to 0.507; in assay [2] it was 0.779; in [3], 0.862; in assay [4], 0.665; in the assay with GCIY (Gastric Carcinoma) it was 0.475; in assay [5], 0.825. For the same compound, the “combination Emax” value in assay [6] stood at 0.569; in assay [7], 0.93; in [8], 0.979; in assay [9], 0.974; in [10] it was 0.924; in assay [11], 0.514. Besides, the Bliss excess is 0.0032 in assay [12]; -0.0318 in assay [13]; -0.0443 in [14]; -0.0188 in assay [15]; -0.0891 in assay [16]; -0.0188 in assay [17]. Moreover, the figures for the Bliss excess in assay [18] and in assay [19] were -0.0704 and -0.0005, respectively.

As for `Cn1cnc2c(F)c(Nc3ccc(Br)cc3Cl)c(C(=O)NOCCO)cc21` [Selumetinib] + CC(C)n1c(=O)n(C)c2cnc3cc(F)c(-c4ccc(OCCCN5CCCCC5)nc4)cc3c21 [AZD1390] (first compound max 10 µM, 7x7, partner max 0.3 µM), the “combination Emax” value amounted to 0.152 in assay [1]; 0.405 in [2]; 0.101 in [3]; 0.702 in [4]; 0.396 with GCIY (Gastric Carcinoma); 0.774 in [5]. The “combination Emax” value in [6] is 0.351; in [7] it was 0.177; in [8], 0.0431; in assay [9] it was 0.172; in assay [10] it was 0.017; in assay [11] it was 0.0866. In addition, the Bliss excess in [12] was -0.0565; in [13] it was -0.0473; in assay [14] it was -0.0245; in assay [15], 0.0046; in assay [16] it was -0.0336; in assay [17], -0.043. The Bliss excess in assay [18] is -0.0418; in [19], -0.0235.

On to `Cn1cnc2c(F)c(Nc3ccc(Br)cc3Cl)c(C(=O)NOCCO)cc21` [Selumetinib] + CCN(CCO)CCCOc1ccc2c(Nc3cc(CC(=O)Nc4cccc(F)c4)[nH]n3)ncnc2c1 [AZD2811] (first compound max 10 µM, 7x7, partner max 1 µM), for which the “combination Emax” value was 0.223 in assay [1]; 0.676 in assay [2]; 0.611 in assay [3]; 0.678 in assay [4]; 0.371 in the assay with GCIY (Gastric Carcinoma); 0.827 in assay [5]. The “combination Emax” value in assay [6] amounted to 0.484; in assay [7], 0.262; in [8], 0.937; in assay [9] it was 0.734; in [10], 0.116; in assay [11], 0.366. Moreover, the Bliss excess in assay [12] is -0.0073; in [13] it was 0.0012; in [14], -0.0367; in assay [15], 0.0552; in assay [16], 0.0139; in assay [17] it was 0.0251. Besides, the Bliss excess in assay [18] was 0.0048; in assay [19], 0.0109.

Take `Cn1cnc2c(F)c(Nc3ccc(Br)cc3Cl)c(C(=O)NOCCO)cc21` [Selumetinib] + C[C@@H]1COCCN1C2=NC(=NC(=C2)C3(CC3)[S@](=N)(=O)C)C4=C5C=CNC5=NC=C4 [AZD6738] (first compound max 10 µM, 7x7, partner max 10 µM): the “combination Emax” value in assay [1] was 0.422; in assay [2] it was 0.627; in [3] it was 0.67; in assay [4], 0.643; in the assay on GCIY (Gastric Carcinoma), 0.704; in assay [5], 0.764. For the same compound, the “combination Emax” value in assay [6] was 0.569; in assay [7], 0.909; in assay [8] it was 0.953; in [9] it was 0.97; in assay [10], 0.801; in assay [11], 0.814. In addition, the Bliss excess in [12] is 0.0196; in [13], 0.0316; in assay [14] it was -0.0098; in [15], 0.0533; in assay [16] it was 0.0142; in [17] it was -0.0549. The figures for the Bliss excess in [18] and in assay [19] were -0.0259 and 0.029, respectively.

As to `CC(=O)Nc1cccc(-n2c(=O)n(C3CC3)c(=O)c3c(Nc4ccc(I)cc4F)n(C)c(=O)c(C)c32)c1` [Trametinib] + Cc1nc(-c2cn3c(n2)-c2ccc(-c4cnn(C(C)(C)C(N)=O)c4)cc2OCC3)n(C(C)C)n1 [Taselisib] (first compound max 1 µM, 7x7, partner max 10 µM), the “combination Emax” value was 0.76 in assay [1]; 0.955 in assay [2]; 1 in [3]; 0.785 in assay [4]; 0.99 in the assay on GCIY (Gastric Carcinoma); 0.997 in [5]. In addition, the “combination Emax” value was found to be 0.916 in assay [6]; 0.169 in assay [7]; 0.35 in assay [8]; 0.74 in assay [9]; 0.635 in [10]; 0.784 in [11]. For the same compound, the Bliss excess was 0.105 in assay [12]; 0.177 in assay [13]; 0.0927 in [14]; 0.204 in assay [15]; -0.051 in [16]; 0.0392 in assay [17]. Moreover, the Bliss excess came to 0.0655 in assay [18] and 0.232 in assay [19].

Turning to `CC1(C)CCC(CN2CCN(c3ccc(C(=O)NS(=O)(=O)c4ccc(NCC5CCOCC5)c([N+](=O)[O-])c4)c(Oc4cnc5[nH]ccc5c4)c3)CC2)=C(c2ccc(Cl)cc2)C1` [Venetoclax] + C1CN(CCC1(C(=O)N[C@@H](CCO)C2=CC=C(C=C2)Cl)N)C3=NC=NC4=C3C=CN4 [Capivasertib] (first compound max 1 µM, 7x7, partner max 3 µM), the “combination Emax” value stood at 0.326 in [1]; 0.128 in assay [2]; 0.679 in assay [3]; 0.11 in [4]; 0.442 in the assay on GCIY (Gastric Carcinoma); 0.813 in assay [5]. In addition, the “combination Emax” value in assay [6] was determined as 0.362; in assay [7] it was 0.996; in assay [8] it was 1; in assay [9], 0.646; in [10] it was 0.867; in assay [11], 0.188. The Bliss excess in [12] is -0.0444; in [13], -0.0362; in [14], -0.003; in [15], -0.0035; in assay [16], -0.0533; in assay [17] it was -0.0636. For the same compound, the Bliss excess in [18] was -0.0405; in assay [19] it was -0.0175.

(Values after the supplement of paper PMC11061612.)
